Non-standard residues stand in square brackets, D forms with d. Residues, ends and D or L forms follow the SMILES beside them. *: point of attachment. Dolaproine = CO[C@@H]([C@@H]1CCCN1)[C@@H](C)C(=O)O; Dil = CC[C@H](C)[C@H](NC)[C@@H](CC(=O)O)OC; X1 = C[C@@H](N*)[C@@H](O)c1ccccc1; NMeV = CN[C@H](C(=O)O)C(C)C
Columns and labels:
786-O cells = experiment: In vitro combination cytotoxicity (Cell Titer Glo, Chou-Talalay CI), 786-O; type: cell-based; conditions: for interaction with the rapalogs temsirolimus, sirolimus, and everolimus / cytotoxicity of the drug alone: 786-O cell line; for interaction with the rapalogs temsirolimus, sirolimus, and everolimus: FIG. 2; for cytotoxicity of the drug alone: single drug; for effect on the cytotoxicity of h1F6-mcF: RCC cell lines (786-O and Caki-2 named in the sentence before)
Procedure: (§1) 786-O cells were cultured in Roswell Park Memorial Institute medium (RPMI) 1640+10% fetal bovine serum (FBS). Caki-1 cells were cultured in McCoy's 5A medium+10% FBS. Caki-2 cells were cultured in McCoy's 5A medium+2% FBS. 786-O, Caki-1, and Caki-2 cells (renal cell carcinoma cell lines) were all cultured at 37° C. with 5% CO2. L540cy cells were cultured in RPMI 1640+20% FBS. L428 cells were cultured in RPMI 1640+10% FBS. L540cy and L428 cell lines are Hodgkin lymphoma cell lines. Karpas-299 cells were cultured in RPMI 1640+10% FBS. The Karpas-299 cell line is an anaplastic large cell lymphoma cell (ALCL) line. HT cells were cultured in RPMI 1640+10% FBS. Raji 4RII cells (clone-11) were a gift from Francisco J. Hernandez-Ilizaliturri and cultured in RPMI 1640+10% FBS. HT and Raji 4RH cell lines are Non-Hodgkin lymphoma cell lines. Jeko-1 cells were cultured in RPMI-1640+10% FBS . Jeko-1 cell lines are mantle cell lymphoma cell lines.
Cells were plated in 100 μL growth media per well into black-sided clear-bottom 96-well plates. Next, 4× concentration working stocks of small molecule inhibitor and antibody drug conjugate were prepared, and then titrated as 2-fold serial dilutions producing 10-point dose curves. For the single drug conditions, 50 μL small molecule inhibitor or ADC or free auristatin was added to each well in quadruplicate with 50 μL of media producing a final volume of 200 μL per well. For the combination conditions, 50 μL small molecule inhibitor and 50 μL ADC or free auristatin dilution were added to the cells (overlaying the dose titrations of each drug: high to low) in quadruplicate producing a final volume of 200 μ, per well. Treated cells were incubated 96 hours at 37° C., 5% CO2. Cytotoxicity was measured by incubating with 100 μL Cell Titer Glo (Promega) solution for 1 hour, and then luminescence was measured on a Fusion HT plate reader (Perkin Elmer). Data was processed with Excel (Microsoft) and GraphPad (Prism) to produce dose response curves and calculate the fraction affected (f a) at each dose concentration. Then CalcuSyn (Biosoft) software was used to determine synergism, additivity, or antagonism for each drug combination using the median-effect equation of Chou-Talalay: D=Dm[fa/(1−fa)]^1/m Median-effect equation
(D) is the dose of the drug. (Dm) is the median-effect dose signifying the potency. This is determined by the x-intercept of the median-effect plot. (fa) is the fraction affected by the dose. (fu) is the fraction unaffected, (1−fa). (m) is an exponent signifying the sigmoidicity (shape) of the dose-effect curve. It is determined by the slope of the median-effect plot. The linear correlation coefficient “r” should be greater than or equal to 0.90. The drug concentration units are arbitrary.
Combination index (CI) values <0.9 indicate synergism, CI values 0.9-1.1 indicate additivity, and CI values >1.1 indicate antagonism.
Each combination study was repeated on separate days a total of n=3 times unless otherwise noted, and the mean combination index value reported with standard error of the mean (sem).

Caki-1 cells = experiment: In vitro combination cytotoxicity (Cell Titer Glo, Chou-Talalay CI), Caki-1; type: cell-based; conditions: Caki-1 cell line; FIG. 3
Procedure: as §1
(§2) Cells were plated in 100 μL growth media per well into black-sided clear-bottom 96-well plates. […] Cytotoxicity was measured by incubating with 100 μL Cell Titer Glo (Promega) solution for 1 hour, and then luminescence was measured on a Fusion HT plate reader (Perkin Elmer). […]
(§3) (D) is the dose of the drug. […] This is determined by the x-intercept of the median-effect plot. […] It is determined by the slope of the median-effect plot. […]

L428 cells [1] = experiment: In vivo combination of cAC10-vcE and everolimus, B-like Hodgkin lymphoma murine xenograft; design: species or system NOD-SCID-gamma mice; conditions: for complete responses: L428 xenograft, day 61, groups of 10 mice, cAC10-vcE 1.0 mg/kg q4dx4 ip, everolimus 15 mg/kg po
Procedure: To test combination treatments in B-like Hodgkin lymphoma in vivo, a murine xenograft model was used. L428 cells were implanted into NOD-SCID-gamma mice (The Jackson Laboratory) to generate tumors. Tumors were grown to an average of 90 mm 3 , then sorted into groups of 10 mice. Mice were not treated, treated with everolimus (15 mg/kg), treated with cAC10 (1 mg/kg), treated with cAC10-vcE (1.0 mg/kg), treated with cAC10 and everolimus, or treated with cAC10-vcE and everolimus. The cAC10-vcE and cAC10 was administered q4dx4 ip. The everolimus was administered ql dx14 po.

Caki-2 cells = experiment: In vitro combination cytotoxicity (Cell Titer Glo, Chou-Talalay CI), Caki-2; type: cell-based; conditions: Caki-2 cell line; single drug
Procedure: as §1, §2, §3

L428 cells [2] = experiment: In vivo combination of cAC10-vcE and temsirolimus, B-like Hodgkin lymphoma murine xenograft; design: species or system NOD-SCID-gamma mice; conditions: for Median Days to Triple Volume: L428 xenograft, cAC10-vcE 1.0 mg/kg q4dx4 ip, temsirolimus 20 mg/kg ip
Procedure: To test combination treatments in B-like Hodgkin lymphoma in vivo, a murine xenograft model was used. L428 cells were implanted into NOD-SCID-gamma mice (The Jackson Laboratory) to generate tumors. Tumors were grown to an average of 90 mm^3, then sorted into groups of 7 mice. Mice were not treated, treated with temsirolimus (20 mg/kg), treated with cAC10-vcE (1.0 mg/kg), or treated with cAC10-vcE and temsirolimus. The cAC10-vcE was administered q4dx4 ip. The temsirolimus was administered q4dx4 ip or q3dx6 ip. In the combination treatment, the cAC10-vcE was dosed 2 days before temsirolimus. Tumor volume was measured periodically for 120 days post initial dosing. Data was plotted as a Kaplan-Meier plot showing rate of tumor tripling. P-values were calculated using the Log-rank test to confirm statistical significance.

HT cells = experiment: In vitro combination cytotoxicity (Cell Titer Glo, Chou-Talalay CI), HT; type: cell-based; conditions: HT cell line
Procedure: as §1, §2, §3

CC[C@H](C)[C@@H]([C@@H](CC(=O)N1CCC[C@H]1[C@H](OC)[C@@H](C)C(=O)N[C@H](C)[C@@H](O)c1ccccc1)OC)N(C)C(=O)[C@@H](NC(=O)[C@@H](NC)C(C)C)C(C)C [MMAE, monomethyl auristatin E] (H-[NMeV]V[Dil][Dolaproine]-X1)
interaction with the rapalogs temsirolimus, sirolimus, and everolimus (786-O cells): synergistic
interaction with the rapalogs temsirolimus and sirolimus (Caki-1 cells): synergistic

CO[C@H]1C[C@@H]2CC[C@@H](C)[C@@](O)(O2)C(=O)C(=O)N2CCCC[C@H]2C(=O)O[C@H]([C@H](C)C[C@@H]2CC[C@@H](OCCO)[C@H](OC)C2)CC(=O)[C@H](C)/C=C(\C)[C@@H](O)[C@@H](OC)C(=O)[C@H](C)C[C@H](C)/C=C/C=C/C=C/1C [everolimus]
complete responses (L428 cells [1]): no complete responses

CO[C@H]1C[C@@H]2CC[C@@H](C)[C@@](O)(O2)C(=O)C(=O)N2CCCC[C@H]2C(=O)O[C@H]([C@H](C)C[C@@H]2CC[C@@H](OC(=O)C(C)(CO)CO)[C@H](OC)C2)CC(=O)[C@H](C)/C=C(\C)[C@@H](O)[C@@H](OC)C(=O)[C@H](C)C[C@H](C)/C=C/C=C/C=C/1C [temsirolimus]
cytotoxicity of the drug alone (786-O cells): not potent cytotoxic drugs
effect on the cytotoxicity of h1F6-mcF (786-O cells): potentiate the cytotoxicity of h1F6-mcF
cytotoxicity of the drug alone (Caki-2 cells): not potent cytotoxic drugs except in the Caki-2 cell line grown in media with low FBS
Median Days to Triple Volume (L428 cells [2]): 56 days

cAC10-vcE: vc-MMAE (mc-vc-MMAE) antibody drug conjugate wherein the antibody is a chimeric AC10 (anti-CD30) antibody
interaction with everolimus in delaying tumor growth in vivo (L428 cells [1]; B-like HL murine xenograft model, FIG. 6): synergistic
complete responses (L428 cells [1]): no complete responses
interaction with temsirolimus in delaying tumor growth in vivo (L428 cells [2]; B-like HL murine xenograft model, FIG. 5): synergistic
Median Days to Triple Volume (L428 cells [2]): 52 days

CO[C@H]1C[C@@H]2CC[C@@H](C)[C@@](O)(O2)C(=O)C(=O)N2CCCC[C@H]2C(=O)O[C@H]([C@H](C)C[C@@H]2CC[C@@H](O)[C@H](OC)C2)CC(=O)[C@H](C)/C=C(\C)[C@@H](O)[C@@H](OC)C(=O)[C@H](C)C[C@H](C)/C=C/C=C/C=C/1C [sirolimus, rapamycin]
cytotoxicity of the drug alone (786-O cells): not potent cytotoxic drugs
effect on the cytotoxicity of h1F6-mcF (786-O cells): potentiate the cytotoxicity of h1F6-mcF
cytotoxicity of the drug alone (Caki-2 cells): not potent cytotoxic drugs except in the Caki-2 cell line grown in media with low FBS

B1: hBU12-mcF (conjugate, chains of the INN, looked up)
VH: QVQLQESGPGLVKPSQTLSLTCTVSGGSISTSGMGVGWIRQHPGKGLEWIGHIWWDDDKRYNPALKSRVTISVDTSKNQFSLKLSSVTAADTAVYYCARMELWSYYFDYWGQGTLVTVSS
VL: EIVLTQSPATLSLSPGERATLSCSASSSVSYMHWYQQKPGQAPRLLIYDTSKLASGIPARFSGSGSGTDFTLTISSLEPEDVAVYYCFQGSVYPFTFGQGTKLEIK
modifications: maleimidocaproyl-MMAF (mcF) drug conjugate
interaction with the rapalogs temsirolimus and sirolimus (HT cells): synergistic

B2: h1F6-mcF (conjugate, chains of the INN, looked up)
VH: QVQLVQSGAEVKKPGASVKVSCKASGYTFTNYGMNWVRQAPGQGLKWMGWINTYTGEPTYADAFKGRVTMTRDTSISTAYMELSRLRSDDTAVYYCARDYGDYGMDYWGQGTTVTVSS
VL: DIVMTQSPDSLAVSLGERATINCRASKSVSTSGYSFMHWYQQKPGQPPKLLIYLASNLESGVPDRFSGSGSGTDFTLTISSLQAEDVAVYYCQHSREVPWTFGQGTKVEIK
modifications: maleimidocaproyl-MMAF (mcF) drug conjugate
interaction with the rapalogs temsirolimus, sirolimus, and everolimus (786-O cells): synergistic
interaction with the rapalogs temsirolimus and sirolimus (Caki-1 cells): synergistic

— patent US12496353B2, “Synergistic effects between auristatin-based antibody drug conjugates and inhibitors of the PI3K-AKT mTOR pathway” (SEAGEN INC., priority 2010, dated 2025)
